Data reported in US20240108618A1, “KRAS G12C INHIBITOR DOSING REGIMENS” (Eli Lilly and Company, priority 2022, published 2024).

Key:
[1] = test system: KRAS G12C-mutant advanced solid tumors; experiment: NCT04956640 Phase 1a, Phase 1b Cohort B4 and Cohort C2 pooled statements
Source text: (§1) NCT04956640 includes Phase 1a dose escalation (Part A of NCT04956640, see Table 3) followed by a Phase 1b dose expansion (Parts B to E of NCT04956640, see Table 4). […] Phase 1b dose expansion will include 12 cohorts (See Table 4) to further evaluate safety and clinical activity.

[2] = test system: EL3187; experiment: EL3187 (lung) patient-derived xenograft (PDX) model; type: in vivo, mouse
Description: (§2) For xenograft models of H1373, HCC44, MiaPaca-2, SW1463, SW837, KYSE-410 and UM-UC-3, typically 5-10×10^6 cells in a 1:1 matrigel mix (0.2 mL total volume) are implanted by subcutaneous injection in hind leg of nude mice. […] Treatment is initiated with oral administration (gavage) of testing compound or vehicle (20% captisol, 25 mM phosphate, pH2.0) in 0.2 mL volume when tumor size reaches approximately 200-300 mg. Tumor growth and body weight are monitored over time to evaluate efficacy and signs of toxicity. For EL3187 PDX model, frozen vials containing tumor fragments are thawed at 37° C. in a water bath. The tumor fragments are transferred to 50 mL Falcon tube and the ice cold DMEM medium is slowly added into the tube to a total volume of 35 mL. Then the tumor fragments are centrifuged at 130×g for 2 minutes at 4° C. and supernatant is aspirated. This washing step is repeated twice and the tumor fragments are resuspended in 10 mL DMEM for implantation into athymic nude-Foxn1nu mice (Envigo RMS, Inc., Mount Comfort, Indiana). Once tumor volumes reach 800 to 1000 mm^3, animals are sacrificed and tumors are harvested using aseptic technique. Fresh tumors are cut into 10 to 15 mm^3 fragments and placed into cold Gibco hibernate medium. The tumor fragments are subcutaneously implanted into animals with a 10 g trochar needle. When tumor size reaches 200 to 300 mm^3, the animals are randomized for compound treatment.
(§3) Among models listed in Table 2, EL3187 is a patient-derived xenograft (PDX) model, and all other are tumor xenograft models.

[3] = Source text: A “DLT” is defined as any of the treatment-emergent adverse event (TEAEs), as defined by the National Cancer Institute's Common Terminology Criteria for Adverse Events, version 5.0 (NCI CTCAE v5.0), deemed clinically significant and occurring during the first 21 days of study drug per dose level per patient, unless the adverse event (AE) can be clearly related to the patient's underlying disease, other medical condition, or concomitant medications including any AEs attributed by the Investigator to the combination agent alone. A TEAE is defined as an AE that starts or worsens on or after the date of the first dose of study drug (for example on Study Day 1) through 28 days (+14 days window) after the date of the last dose of study drug or the first date starting new anticancer therapy, whichever is earlier. A Serious TEAE is defined as an TEAE that is grade 3 or higher based on severity grade assignment as defined by the National Cancer Institute's Common Terminology Criteria for Adverse Events, version 5.0 (NCI CTCAE v5.0). A Fatal TEAE is defined as an TEAE that is grade 5 based on severity grade assignment as defined by the National Cancer Institute's Common Terminology Criteria for Adverse Events, version 5.0 (NCI CTCAE v5.0).
as §1

[4] = NCT04956640 Phase 1a monotherapy safety: treatment-emergent adverse events; details: in vivo
Source text: (§4) A “DLT” is defined as any of the treatment-emergent adverse event (TEAEs), as defined by the National Cancer Institute's Common Terminology Criteria for Adverse Events, version 5.0 (NCI CTCAE v5.0), deemed clinically significant and occurring during the first 21 days of study drug per dose level per patient, unless the adverse event (AE) can be clearly related to the patient's underlying disease, other medical condition, or concomitant medications including any AEs attributed by the Investigator to the combination agent alone. A TEAE is defined as an AE that starts or worsens on or after the date of the first dose of study drug (for example on Study Day 1) through 28 days (+14 days window) after the date of the last dose of study drug or the first date starting new anticancer therapy, whichever is earlier. A Serious TEAE is defined as an TEAE that is grade 3 or higher based on severity grade assignment as defined by the National Cancer Institute's Common Terminology Criteria for Adverse Events, version 5.0 (NCI CTCAE v5.0). A Fatal TEAE is defined as an TEAE that is grade 5 based on severity grade assignment as defined by the National Cancer Institute's Common Terminology Criteria for Adverse Events, version 5.0 (NCI CTCAE v5.0). […]

[5] = NCT04956640 Phase 1b Cohort C2 (with cetuximab) safety: treatment-emergent adverse events
Source text: as §4

[6] = test system: UM-UC-3; experiment: UM-UC-3 (bladder) xenograft model; type: in vivo, mouse
Description: as §2, §3

[7] = test system: SW1463; experiment: SW1463 (CRC) xenograft model; type: in vivo, mouse
Description: as §2, §3

## C=CC(=O)N1CCN2C(=O)c3cc(F)c(-c4ccc(F)c5sc(N)c(C#N)c45)c(Cl)c3OCC[C@H]2C1 (single isomer, unassigned) [Formula I]
[1]; as of January 2023
  DLTs: No DLTs were observed
  MTD: MTD was not reached
  patients with a grade 3 or greater TEAE: four
  patients with dose reduction due to TRAE: one
  patients with permanent discontinuation due to TRAE: one
[1]; in vivo
  TRAE grade in seven patients who discontinued a prior KRAS G12C inhibitor due to toxicity: ≤ 2 grade
  median time to response: 1.4 month
[2]; 1 mg/kg BID x28
  tumor growth inhibition (%) or regression (− %): 89.2%
[2]; 1 mg/kg QD x28
  tumor growth inhibition (%) or regression (− %): 52%
[2]; 3 mg/kg BID x28
  tumor growth inhibition (%) or regression (− %): −91%
[2]; 3 mg/kg QD x28
  tumor growth inhibition (%) or regression (− %): −39.8%
[2]; 10 mg/kg BID x28
  tumor growth inhibition (%) or regression (− %): −96%
[2]; 10 mg/kg QD x28
  tumor growth inhibition (%) or regression (− %): −96%
[3]; 50 mg BID
  discontinuation due to TRAE: one
[3]; 50 mg BID and 100 mg BID
  rate of immune-related AEs, including hepatoxicity: low rate of immune-related AEs
[3]; 50 mg and 100 mg BID
  dose reductions: no dose reductions
[4]
  tolerability: well tolerated
[5]; 100 mg BID
  DLT: One DLT, a grade 3 ALT/AST ratio increase
[5]; in vivo
  permanent discontinuation due to TRAEs: No Phase 1b Cohort C2 patient permanently discontinued
[6]; 5 mg/kg BID x28
  tumor growth inhibition (%) or regression (− %): 45.3%
[6]; 5 mg/kg QD x28
  tumor growth inhibition (%) or regression (− %): 34.3%
[6]; 10 mg/kg BID x28
  tumor growth inhibition (%) or regression (− %): 75%
[6]; 10 mg/kg QD x28
  tumor growth inhibition (%) or regression (− %): 33.6%
[6]; 30 mg/kg BID x28
  tumor growth inhibition (%) or regression (− %): 85%
[6]; 30 mg/kg QD x28
  tumor growth inhibition (%) or regression (− %): 83.1%
[7]; 5 mg/kg BID x28
  tumor growth inhibition (%) or regression (− %): 48.8%
[7]; 5 mg/kg QD x28
  tumor growth inhibition (%) or regression (− %): 52.5%
[7]; 10 mg/kg BID x28
  tumor growth inhibition (%) or regression (− %): 79.5%
[7]; 10 mg/kg QD x28
  tumor growth inhibition (%) or regression (− %): 78.3%
[7]; 30 mg/kg BID x28
  tumor growth inhibition (%) or regression (− %): 98.8%
[7]; 30 mg/kg QD x28
  tumor growth inhibition (%) or regression (− %): 89.8%
